Measurements: paper PMC3286537 (Purinergic Signalling, 2011)
Positions count from the first letter of the chain named. Read-outs that look alike come from different tables or passages of the source.

Columns and labels:
[1] = system: A2BR mutant C167^EL2 to serine; conditions: C167^EL2 mutated to serine; cited from earlier work
[2] = target: T1, human adenosine A2BR mutant Y202S^5.58 (Homo sapiens, UniProt P29275, Y202S); test: Liquid yeast growth assay, mutant Y202S
T1 sequence (P29275 1-332 Y202S): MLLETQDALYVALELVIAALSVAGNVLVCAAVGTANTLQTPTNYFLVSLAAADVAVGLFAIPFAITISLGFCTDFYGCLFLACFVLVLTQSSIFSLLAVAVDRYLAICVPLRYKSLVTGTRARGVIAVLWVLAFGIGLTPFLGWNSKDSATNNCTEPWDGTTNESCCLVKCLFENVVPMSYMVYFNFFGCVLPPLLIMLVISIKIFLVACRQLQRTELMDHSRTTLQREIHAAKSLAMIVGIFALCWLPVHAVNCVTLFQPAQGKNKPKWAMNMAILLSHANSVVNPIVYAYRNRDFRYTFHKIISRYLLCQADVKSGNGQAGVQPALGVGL

[3] = target: T2, human adenosine A2BR mutant C167S^EL2 (Homo sapiens, UniProt P29275, C167S); test: Liquid yeast growth assay, mutant C167S
T2 sequence (P29275 1-332 C167S): T1 sequence (P29275 1-332 Y202S) with C167S, S202Y

[4] = target: T1, human adenosine A2BR mutant Y202S^5.58; test: Solid yeast growth assay, mutant Y202S; assay type: cell-based; conditions: inverse agonist response
[5] = system: other 11 mutant adenosine A2BRs; test: Solid yeast growth assay, the other 11 mutant receptors; assay type: cell-based, human; conditions: 10 μM ZM241385
hA2BR [6] = target: T3, hA2BR (Homo sapiens, UniProt P29275); test: Saturation binding on whole yeast cells expressing the hA2BR; conditions: read-out: K D, yeast
T3 sequence (P29275 1-332): T1 sequence (P29275 1-332 Y202S) with S202Y

hA2BR [7] = target: T3, hA2BR; conditions: CHO cell membranes expressing the hA2BR; cited from earlier work

N#Cc1c(N)nc(SCC(N)=O)c(C#N)c1-c1ccc(OCC2CC2)cc1 [BAY 60-6583, 2-[6-amino-3,5-dicyano-4-[4-(cyclopropylmethoxy)phenyl]pyridin-2-ylsulfanyl]acetamide]
fold increase in potency [1]: 2.5 fold
fold increase in potency compared with wild type [2]: 10 fold
fold increase in potency compared with wild type [3]: 2 fold

Nc1nc(NCCc2ccc(O)cc2)nc2nc(-c3ccco3)nn12 [ZM241385, 4-{2-[7-amino-2-(2-furyl)[1,2,4]triazolo-[2,3-a][1,3,5]triazin-5-yl-amino]ethyl}phenol]
effect on constitutive activity [4]: could be reduced to wild-type levels
effect on constitutive activity [5]: could be fully suppressed

CCCn1c(=O)[nH]c2nc(-c3ccc(S(=O)(=O)N4CCN(c5ccc(Cl)cc5)CC4)cc3)[nH]c2c1=O [[^3H]PSB-603]
Kd (hA2BR [6]): 0.81 ± 0.02 nM
Kd (hA2BR [7]): 0.4 ± 0.19 nM
